The source of these data is the supplement of paper PMC6045584.

Compound in one experiment: O=C(CCCCCCC(=O)Nc1ccccc1)NO [VORINOSTAT]
As to the kind of experiment: surviving fraction relative to DMSO-only wells; higher = less growth inhibition. As to conditions: exposure time: 5 days. An outline of the steps: (§1)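 Viability values are CellTiter-Glo luminescence readings, given as surviving fraction against the median of DMSO-only wells. The readings were taken after 10 minutes at room temperature, following five days of continuous exposure to inhibitors at 0.5, 1, 5, 10, 50, 100, 500 and 1000 nM that began 24 hours after log-phase tumour cell lines were seeded at 250–500 cells per well in 384-well plates. Every line was screened three times and kept only if replicate Pearson r >0.7 and median Z' >0.3.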

Compound in experiment [1]: COc1ccc(-c2cc3c(C)nc(N)nc3n([C@H]3CC[C@H](OCCO)CC3)c2=O)cn1
The experiment is described as above. The note with it: exposure time: 5 days. An outline of the steps: as §1

± gives the standard deviation of the averaged measurements.

In the case of SNU475 LIVER, the surviving fraction with VORINOSTAT (0.5 nM) was 0.9603 ± 0.0081; in the experiment with VORINOSTAT (1 nM), 0.944 ± 0.021; with VORINOSTAT (5 nM), 0.966 ± 0.028; with VORINOSTAT (10 nM), 0.831 ± 0.037; with VORINOSTAT (50 nM), 0.968 ± 0.027; with VORINOSTAT (100 nM) it was 0.941 ± 0.026. Besides, the surviving fraction in the experiment with VORINOSTAT (500 nM) amounted to 0.817 ± 0.018; with VORINOSTAT (1000 nM) it was 0.556 ± 0.024; in experiment [1] (0.5 nM), 0.94 ± 0.013; in experiment [1] (1 nM) it was 0.951 ± 0.022; in experiment [1] (5 nM), 0.891 ± 0.041; in experiment [1] (10 nM), 0.865 ± 0.012. Further, the surviving fraction was determined as 0.625 ± 0.014 in experiment [1] (50 nM), 0.404 ± 0.036 in experiment [1] (100 nM), 0.127 ± 0.0076 in experiment [1] (500 nM) and 0.0823 ± 0.0011 in experiment [1] (1000 nM).
On to DU4475 BREAST, for which the surviving fraction came to 1.41 ± 0.74 in the experiment with VORINOSTAT (0.5 nM); 1.08 ± 0.76 with VORINOSTAT (1 nM); 1.05 ± 0.56 with VORINOSTAT (5 nM); 1.25 ± 0.66 with VORINOSTAT (10 nM); 1.07 ± 0.57 with VORINOSTAT (50 nM); 0.952 ± 0.38 in the experiment with VORINOSTAT (100 nM). The surviving fraction with VORINOSTAT (500 nM) was 0.627 ± 0.22; in the experiment with VORINOSTAT (1000 nM), 0.431 ± 0.17; in experiment [1] (0.5 nM) it was 0.752 ± 0.16; in experiment [1] (1 nM), 0.767 ± 0.18; in experiment [1] (5 nM), 0.667 ± 0.25; in experiment [1] (10 nM) it was 0.639 ± 0.24. In addition, the surviving fraction turned out to be 0.412 ± 0.074 in experiment [1] (50 nM), 0.301 ± 0.057 in experiment [1] (100 nM), 0.0443 ± 0.021 in experiment [1] (500 nM) and 0.0323 ± 0.006 in experiment [1] (1000 nM).
SG31 HEADNECK: the surviving fraction in the experiment with VORINOSTAT (0.5 nM) stood at 1.07 ± 0.21; with VORINOSTAT (1 nM), 1.05 ± 0.27; in the experiment with VORINOSTAT (5 nM), 1.02 ± 0.078; in the experiment with VORINOSTAT (10 nM) it was 1.01 ± 0.18; with VORINOSTAT (50 nM), 1.08 ± 0.12; with VORINOSTAT (100 nM), 1.04 ± 0.042. Besides, the surviving fraction in the experiment with VORINOSTAT (500 nM) is 0.948 ± 0.14; in the experiment with VORINOSTAT (1000 nM), 0.63 ± 0.027; in experiment [1] (0.5 nM) it was 0.99 ± 0.13; in experiment [1] (1 nM), 0.942 ± 0.1; in experiment [1] (5 nM), 0.933 ± 0.08; in experiment [1] (10 nM), 0.766 ± 0.057. The surviving fraction in experiment [1] (50 nM) worked out at 0.637 ± 0.036; in experiment [1] (100 nM), 0.463 ± 0.054; in experiment [1] (500 nM) it was 0.25 ± 0.014; in experiment [1] (1000 nM), 0.162 ± 0.023.
In the case of SKBR3 BREAST, the surviving fraction with VORINOSTAT (0.5 nM) is 1 ± 0.11; with VORINOSTAT (1 nM) it was 0.996 ± 0.15; in the experiment with VORINOSTAT (5 nM), 0.85 ± 0.03; in the experiment with VORINOSTAT (10 nM) it was 0.915 ± 0.17; in the experiment with VORINOSTAT (50 nM), 0.98 ± 0.13; with VORINOSTAT (100 nM), 1.02 ± 0.15. In addition, the surviving fraction in the experiment with VORINOSTAT (500 nM) is 0.433 ± 0.046; in the experiment with VORINOSTAT (1000 nM), 0.179 ± 0.046; in experiment [1] (0.5 nM) it was 0.863 ± 0.093; in experiment [1] (1 nM), 0.88 ± 0.073; in experiment [1] (5 nM) it was 0.833 ± 0.23; in experiment [1] (10 nM) it was 0.763 ± 0.15. Also, the surviving fraction was 0.434 ± 0.073 in experiment [1] (50 nM), 0.204 ± 0.043 in experiment [1] (100 nM), 0.058 ± 0.0053 in experiment [1] (500 nM) and 0.0507 ± 0.0047 in experiment [1] (1000 nM).
Consider MDAMB361 BREAST, for which the surviving fraction with VORINOSTAT (0.5 nM) amounted to 0.809 ± 0.028; with VORINOSTAT (1 nM) it was 0.871 ± 0.097; with VORINOSTAT (5 nM) it was 0.796 ± 0.019; with VORINOSTAT (10 nM) it was 0.825 ± 0.037; with VORINOSTAT (50 nM), 0.783 ± 0.096; with VORINOSTAT (100 nM), 0.843 ± 0.077. The surviving fraction with VORINOSTAT (500 nM) turned out to be 0.596 ± 0.014; in the experiment with VORINOSTAT (1000 nM), 0.378 ± 0.015; in experiment [1] (0.5 nM) it was 0.905 ± 0.065; in experiment [1] (1 nM), 0.953 ± 0.1; in experiment [1] (5 nM) it was 0.852 ± 0.056; in experiment [1] (10 nM), 0.775 ± 0.096. The surviving fraction in experiment [1] (50 nM) amounted to 0.78 ± 0.082; in experiment [1] (100 nM), 0.604 ± 0.026; in experiment [1] (500 nM) it was 0.248 ± 0.02; in experiment [1] (1000 nM), 0.205 ± 0.028.
As for ASKA SYNOVIAL, the surviving fraction with VORINOSTAT (0.5 nM) was found to be 1.01 ± 0.033; with VORINOSTAT (1 nM) it was 1.03 ± 0.038; in the experiment with VORINOSTAT (5 nM) it was 1.08 ± 0.045; in the experiment with VORINOSTAT (10 nM), 0.951 ± 0.022; with VORINOSTAT (50 nM), 1.05 ± 0.015; with VORINOSTAT (100 nM), 1.01 ± 0.018. The surviving fraction with VORINOSTAT (500 nM) was determined as 0.724 ± 0.024; with VORINOSTAT (1000 nM), 0.525 ± 0.028; in experiment [1] (0.5 nM), 0.923 ± 0.037; in experiment [1] (1 nM), 0.896 ± 0.064; in experiment [1] (5 nM), 0.878 ± 0.076; in experiment [1] (10 nM), 0.776 ± 0.054. The surviving fraction in experiment [1] (50 nM) came to 0.462 ± 0.019; in experiment [1] (100 nM), 0.366 ± 0.025; in experiment [1] (500 nM) it was 0.187 ± 0.011; in experiment [1] (1000 nM) it was 0.229 ± 0.026.
With SG28 HEADNECK, the surviving fraction in the experiment with VORINOSTAT (0.5 nM) was 1.11 ± 0.14; with VORINOSTAT (1 nM) it was 1.16 ± 0.17; in the experiment with VORINOSTAT (5 nM) it was 1.066 ± 0.0025; in the experiment with VORINOSTAT (10 nM), 1.09 ± 0.018; with VORINOSTAT (50 nM), 1.03 ± 0.073; with VORINOSTAT (100 nM), 1.09 ± 0.032. Besides, the surviving fraction amounted to 0.998 ± 0.081 in the experiment with VORINOSTAT (500 nM); 0.809 ± 0.11 with VORINOSTAT (1000 nM); 1.042 ± 0.0068 in experiment [1] (0.5 nM); 1.033 ± 0.0092 in experiment [1] (1 nM); 0.998 ± 0.1 in experiment [1] (5 nM); 0.899 ± 0.058 in experiment [1] (10 nM). Also, the surviving fraction in experiment [1] (50 nM) is 0.691 ± 0.036; in experiment [1] (100 nM), 0.621 ± 0.057; in experiment [1] (500 nM), 0.3 ± 0.0047; in experiment [1] (1000 nM), 0.242 ± 0.005.
Consider SCC003 HEADNECK, for which the surviving fraction with VORINOSTAT (0.5 nM) was found to be 1 ± 0.086; with VORINOSTAT (1 nM), 1.01 ± 0.15; with VORINOSTAT (5 nM), 1.02 ± 0.1; with VORINOSTAT (10 nM), 1.01 ± 0.093; in the experiment with VORINOSTAT (50 nM), 1.09 ± 0.067; in the experiment with VORINOSTAT (100 nM), 1.12 ± 0.091. The surviving fraction was 1.14 ± 0.12 in the experiment with VORINOSTAT (500 nM); 0.847 ± 0.16 in the experiment with VORINOSTAT (1000 nM); 1.03 ± 0.13 in experiment [1] (0.5 nM); 1.04 ± 0.057 in experiment [1] (1 nM); 1.02 ± 0.18 in experiment [1] (5 nM); 1.02 ± 0.036 in experiment [1] (10 nM). Also, the surviving fraction in experiment [1] (50 nM) stood at 0.879 ± 0.098; in experiment [1] (100 nM), 0.878 ± 0.13; in experiment [1] (500 nM) it was 0.23 ± 0.034; in experiment [1] (1000 nM), 0.206 ± 0.049.
